Experimental data taken from paper PMC9796306, “Multiple detection of both attractants and repellents by the dCache‐chemoreceptor SO_1056 of Shewanella oneidensis” (The Febs Journal, 2022).

What was measured:
[1] = target: MBP-LBD1056 (ligand-binding domain of MCP SO_1056) (Shewanella oneidensis, UniProt Q8EHZ8, N170D)
[2] = target: T1, MBP-LBD1056 (ligand-binding domain of MCP SO_1056) (Shewanella oneidensis, UniProt Q8EHZ8); test: isothermal titration calorimetry; settings: read-out: apparent KD
T1 sequence (Q8EHZ8 29-278): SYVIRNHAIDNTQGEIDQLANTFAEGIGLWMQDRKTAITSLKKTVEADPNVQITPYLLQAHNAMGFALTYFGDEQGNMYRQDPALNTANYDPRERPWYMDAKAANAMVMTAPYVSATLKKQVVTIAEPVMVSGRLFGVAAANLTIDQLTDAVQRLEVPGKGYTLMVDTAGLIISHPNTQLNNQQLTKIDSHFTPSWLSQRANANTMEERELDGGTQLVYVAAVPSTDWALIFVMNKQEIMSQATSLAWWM

MBP-LBD1056 (ligand-binding domain of MCP SO_1056) (Shewanella oneidensis, UniProt Q8EHZ8, N170D), sequence (Q8EHZ8 entry or part of it N170D): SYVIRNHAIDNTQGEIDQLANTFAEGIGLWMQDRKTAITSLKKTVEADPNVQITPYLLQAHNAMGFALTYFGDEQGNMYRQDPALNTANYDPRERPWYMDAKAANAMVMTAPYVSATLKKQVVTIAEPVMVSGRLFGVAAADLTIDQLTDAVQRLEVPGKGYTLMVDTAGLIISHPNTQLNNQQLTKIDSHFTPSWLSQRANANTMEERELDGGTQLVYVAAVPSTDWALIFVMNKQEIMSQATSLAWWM

## O=C(O)C[C@H](O)C(=O)O [L-malate]
[1]
  dTm at 1 mM: 2.4 °C
[2]
  Kd: 3.4 ± 0.3 µM
